Test results from patent publication US9303017B2, “2,5-disubstituted-pyridyl nicotinic ligands, and methods of use thereof” (Georgetown University, priority 2011, dated 2016).

How the values were obtained:
[1] = test system: alcohol preferring rats (P rats); experiment: Alcohol intake in alcohol preferring rats; type: in vivo, rat
Protocol: In Vivo Effects on Alcohol Intake in Rats. In our initial behavioral studies in an animal model, effects of compound (S)-15 (Scheme 1, YL-1-127) on alcohol self-administration in alcohol preferring rats (P rats) were assessed. Three doses of (S)-15 were tested: 0.33, 1 and 3 mg/kg (s.c.).
General Procedures for Effect on Alcohol Intake in Rats. Adult male rats obtained from a colony of selectively-bred alcohol preferring rats (P rats) maintained at Indiana University School of Medicine. Rats were housed in cages that were fitted with two 100 mL Richter tubes for the recording of water and alcohol intake. Animals were kept under a constant room temperature of 22±1° C. and 12:12 light-dark cycle (7:00 a.m.-7:00 p.m. dark). Animals were fed 5001 Rodent Chow (Lab Diet, Brentwood, Mo., USA). All procedures were approved by the IACUC at Duke University Medical Center.
After a week of handling and habituation, rats were given free access to water in a graduated Richter tube for 1 day. Next, they were given free access only to a solution of 10% (v/v) alcohol for 3 consecutive days. Thereafter, rats were given free access to water and a solution of alcohol throughout the study. Water and alcohol intake were indexed by graduated Richter drinking tubes.
An acute study was conducted to determine a dose-response for compound (S)-15 (YL-1-127). After the establishment of a stable baseline for alcohol and water intake rats were injected subcutaneously with 0.33, 1 and 3 mg/kg of YL-1-127 or the same volume of the vehicle ([…]). Alcohol and water intake were measured at, 2, 4, 6 and 24 hr after the drug administration. The preference for alcohol solution, [(alcohol volume)/(alcohol+water volume)×100], was calculated for the same time points as alcohol and water intake. All animals (n=18) received all treatments following a crossover design with random assignment. The interval between injections was at least 3 days.
Solution of 10% (v/v) alcohol was prepared twice weekly from a solution of […] mixed with tap water. Solutions of YL-1-127 was prepared weekly in 100 mM HCl solution and isotonic saline and was injected subcutaneously in a volume of 1 mL/kg.
The data were assessed by the analysis of variance with a between subjects factor of strain and a repeated measures factor of YL-1-127 dose. Significance was determined at p

ferrets = experiment: Emesis studies in ferrets; type: in vivo, ferret (Mustela putorius furo); settings: 1-30 mg/kg s.c., 1 hr observation
Protocol: Emetic Effects of Compound (S)-15 (YL-1-127) in Ferrets. Effects of (S)-15 in causing nausea and emesis were assessed in a ferret model. For comparison, varenicline was also tested. […] In general, all animals remained alert and active with periods of inactivity that mirrored their baseline behavior within the 1 hr observation period.
In one animal, this behavior was accompanied by oral stereotypy (licking), whereas in two animals it was interspersed by episodes of backward walking. On the average, these behaviors manifested around ˜2.20 min. […] Occasionally, when animals tried to ambulate they would immediately cease their movement after each attempt. This would be followed by a momentary increase in breathing, giving the impression that the animal was in distress.
General Procedures for Emesis Studies in Ferrets. Studies were undertaken in male ferrets (Mustela putorius furo) weighing 0.9-1.5 kg (Marshall Farms, N.Y.). They were housed in controlled conditions of room temperature (22° C.) and light (12:12 h light-dark cycle) with free access to food and water. Prior to each experiment, food was withheld overnight, whereas water was provided ad libitum.
Emetic testing consisted of placing animals individually in a polycarbonate enclosure. Following a 30 min acclimation period, each animal randomly received a subcutaneus injection of varencline or compound (S)-15 (YL-1-127) in the subscapular region. A 60 min observation and video recording followed the drug administration. […] All drugs were dissolved in sterile saline.
Video analysis of the incidence of emesis, stereotypical behaviors (such as licking, mouth-clawing, backward walking, gagging, and burying of the head in cage) and GI side effects (diarrhea) was done off-line. Stereotypical behaviors are thought to be reflective of a subjective sensation of nausea. The emetic index of a drug was calculated as the […] of animals displaying emesis (one or more times in 60 min) divided by the total number of animals tested. An emetic episode was defined as the forceful oral expulsion of liquid or solid upper gastrointestinal contents that is temporally separated from another by at least 30 s.
The Nausea Index for the stereotypical behaviors was derived from the mean±SEM number of nausea behaviors observed among all animals in a given treatment group. Significance was determined at p<0.05.

α3β4 nAChR = α3β4 nAChR (Rattus norvegicus (Rat), UniProt P04757+P12392); experiment: [3H]-epibatidine competition binding, α3β4; settings: Table 1; mean of 3 to 5 measurements
Protocol: In Vitro Binding Affinities for nAChR Subtypes. […] To determine selectivities of these compounds in binding assays among the three predominant nAChR subtypes, α3β4, α4β2 and α7, the ratios of Ki values (α3β4/α4β2 and α7/α4β2) were determined.
Cell Lines and Cell Culture. The cell lines expressing defined rat nAChR subtypes were established previously by stably transfecting HEK 293 cells with rat nAChR subunit genes. The cell line expressing human α4β2 nAChRs, YXα4β2H1, was established recently. These cell lines were maintained in minimum essential medium (MEM) supplemented with 10% fetal bovine serum, 100 units/mL penicillin G, […] and selective antibiotics at 37° C. with 5% CO2 in a humidified incubator. Fetal bovine serum was provided by Gemini Bio-Products (Woodland, Calif.). Tissue culture medium and antibiotics were obtained from Invitrogen Corporation (Carlsbad, Calif.), unless otherwise stated.
Briefly, cultured cells at >80% confluence were removed from their flasks (80 cm^2) with a disposable cell scraper and placed in 10 mL of 50 mM Tris.HCl buffer (pH 7.4, 4° C.). The cell suspension was centrifuged at 10,000×g for 5 min and the pellet was collected. The cell pellet was then homogenized in 10 mL buffer with a polytron homogenizer and centrifuged at 36,000 g for 10 min at 4° C. The membrane pellet was resuspended in fresh buffer, and aliquots of the membrane preparation were used for binding assays. […] Bound and free ligands were separated by vacuum filtration through Whatman GF/C filters treated with 0.5% polyethylenimine. The filter-retained radioactivity was measured by liquid scintillation counting. Specific binding was defined as the difference between total binding and nonspecific binding. Data from competition binding assays were analyzed using Prism 5 (GraphPad Software, San Diego, Calif.).
Pharmacological Properties. We measured the in vitro binding affinities of the ligands for defined receptor subtypes (α2β2, α2β4, α3β2, α3β4, α4β2, α4β4, α6β2, α6β4, and α7) expressed in stably transfected cell lines. […] Rat forebrain homogenates were included to allow comparison between the heterologous and native α4β2 and α7 nAChRs. See Table 1 for binding affinity values (Ki) of the ligands at the three major nAChR subtypes (α3β4. α4β2 and α7).

Sequence of α3β4 nAChR (P04757 26-499): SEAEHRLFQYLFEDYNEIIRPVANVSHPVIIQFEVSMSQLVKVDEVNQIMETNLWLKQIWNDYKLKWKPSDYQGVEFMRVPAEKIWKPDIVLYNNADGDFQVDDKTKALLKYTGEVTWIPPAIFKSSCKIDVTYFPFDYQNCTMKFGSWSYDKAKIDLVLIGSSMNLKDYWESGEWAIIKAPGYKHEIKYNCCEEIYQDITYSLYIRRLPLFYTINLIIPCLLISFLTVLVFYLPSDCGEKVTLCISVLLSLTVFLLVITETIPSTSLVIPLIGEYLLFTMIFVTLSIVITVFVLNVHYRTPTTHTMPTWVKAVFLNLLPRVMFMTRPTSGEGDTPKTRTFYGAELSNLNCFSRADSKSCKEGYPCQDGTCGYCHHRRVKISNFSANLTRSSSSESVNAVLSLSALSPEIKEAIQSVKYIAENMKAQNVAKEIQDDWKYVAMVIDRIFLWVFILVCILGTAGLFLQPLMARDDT
Sequence of α3β4 nAChR (P12392 21-495): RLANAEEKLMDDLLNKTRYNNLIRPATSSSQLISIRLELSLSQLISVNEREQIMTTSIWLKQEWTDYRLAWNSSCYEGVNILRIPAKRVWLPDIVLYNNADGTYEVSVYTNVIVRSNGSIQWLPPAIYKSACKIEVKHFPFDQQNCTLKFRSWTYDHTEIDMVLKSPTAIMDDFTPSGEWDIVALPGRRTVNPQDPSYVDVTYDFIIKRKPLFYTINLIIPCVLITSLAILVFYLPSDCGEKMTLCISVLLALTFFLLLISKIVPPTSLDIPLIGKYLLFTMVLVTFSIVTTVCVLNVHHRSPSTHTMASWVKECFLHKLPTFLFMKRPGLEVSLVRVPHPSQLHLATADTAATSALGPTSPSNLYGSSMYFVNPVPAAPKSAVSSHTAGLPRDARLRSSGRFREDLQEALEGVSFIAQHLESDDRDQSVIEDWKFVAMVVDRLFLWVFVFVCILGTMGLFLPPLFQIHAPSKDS

CCCCC#Cc1cnc(C)c(OC[C@@H]2CCN2)c1 [(S)-15, (S)-3-(azetidin-2-ylmethoxy)-5-(hex-1-ynyl)-2-methylpyridine]
alcohol intake ([1]; 1 mg/kg s.c., 24 h, p<0.05): reduced alcohol intake significantly | alcohol intake ([1]; 3 mg/kg s.c., 6 h, p<0.05): significant effects | alcohol intake ([1]; 3 mg/kg s.c., 24 h, p<0.0005): significant effects | alcohol intake ([1]; 0.33, 1 and 3 mg/kg s.c., compared with control vehicle): significantly reduced alcohol intake in a dose dependent manner | emetic episodes or stereotypical behaviors indicative of nausea (ferrets): did not elicit any emetic episodes or stereotypical behaviors | Ki (α3β4 nAChR): 230 µM
